# Experimental data as given in ChEMBL document CHEMBL1156573, “Design and synthesis of a novel series of N-alkyl isatin acylhydrazone derivatives that act as selective cannabinoid receptor 2 agonists for the treatment of neuropathic pain” (J Med Chem, 2008).
# Activity calls are given as the source filed them. The calls are words filed in the database; no cut-off is given here.
# What was measured:
# [1] = molecular target: Cannabinoid receptor 1 (Homo sapiens) (UniProt P21554); assay: Agonist activity at human CB1 receptor expressed in CHO cells at 10 uM by [35S]GTPgammaS assay; type: functional, cell-based
# Sequence of Cannabinoid receptor 1 (Homo sapiens) (P21554 whole entry): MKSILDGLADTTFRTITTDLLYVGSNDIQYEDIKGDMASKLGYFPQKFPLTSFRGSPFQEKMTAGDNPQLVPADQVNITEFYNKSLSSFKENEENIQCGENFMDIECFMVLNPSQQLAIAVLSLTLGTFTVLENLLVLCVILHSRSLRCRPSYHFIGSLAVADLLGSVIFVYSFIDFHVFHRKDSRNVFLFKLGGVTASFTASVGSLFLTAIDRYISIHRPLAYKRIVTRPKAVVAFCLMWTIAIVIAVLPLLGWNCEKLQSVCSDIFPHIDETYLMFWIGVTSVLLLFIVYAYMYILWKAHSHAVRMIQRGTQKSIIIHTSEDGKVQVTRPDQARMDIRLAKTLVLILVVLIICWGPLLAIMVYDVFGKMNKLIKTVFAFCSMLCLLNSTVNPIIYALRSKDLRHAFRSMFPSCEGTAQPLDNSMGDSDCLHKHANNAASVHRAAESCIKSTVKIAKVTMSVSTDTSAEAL
# [2] = molecular target: Cannabinoid receptor 1 (Homo sapiens) (UniProt P21554); assay: Displacement of [3H]CP-55940 from human CB1 receptor expressed in CHO cells at 1 uM by liquid scintillation counting; type: cell-based
# [3] = molecular target: T1, Cannabinoid receptor 2 (Homo sapiens, UniProt P34972); assay: Displacement of [3H](R)-3-methyl-2-(3-(morpholinomethyl)-3,4-dihydro-2H-benzo[b][1,4]oxazin-5-yl)-1-(naphthalen-1-yl)but-2-en-1-one from human CB2 receptor expressed in CHO cells at 1 uM by liquid scintillation counting; type: cell-based
# T1 sequence (P34972 whole entry): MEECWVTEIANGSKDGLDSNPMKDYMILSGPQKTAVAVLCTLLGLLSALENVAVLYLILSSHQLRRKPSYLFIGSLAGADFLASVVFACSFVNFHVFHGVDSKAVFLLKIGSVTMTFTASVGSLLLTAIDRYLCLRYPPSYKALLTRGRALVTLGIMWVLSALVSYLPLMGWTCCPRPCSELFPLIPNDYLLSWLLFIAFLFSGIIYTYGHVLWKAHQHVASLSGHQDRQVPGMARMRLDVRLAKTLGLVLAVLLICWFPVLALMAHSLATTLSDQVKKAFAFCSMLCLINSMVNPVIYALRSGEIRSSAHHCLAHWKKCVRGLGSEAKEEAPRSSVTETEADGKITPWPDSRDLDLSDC
# [4] = molecular target: Cannabinoid receptor 1 (Homo sapiens) (UniProt P21554); assay: Agonist activity at human CB1 receptor expressed in CHO cells at 3 uM by [35S]GTPgammaS assay relative to CP-55940; type: functional, cell-based
# [5] = molecular target: T1, Cannabinoid receptor 2; assay: Agonist activity at human CB2 receptor expressed in CHO cells at 3 uM by [35S]GTPgammaS assay relative to CP-55940; type: functional, cell-based
# [6] = molecular target: Cannabinoid receptor 1 (Homo sapiens) (UniProt P21554); assay: Displacement of [3H]CP-55940 from human CB1 receptor expressed in CHO cells at 10 uM by liquid scintillation counting; type: cell-based
# [7] = molecular target: T1, Cannabinoid receptor 2; assay: Displacement of [3H](R)-3-methyl-2-(3-(morpholinomethyl)-3,4-dihydro-2H-benzo[b][1,4]oxazin-5-yl)-1-(naphthalen-1-yl)but-2-en-1-one from human CB2 receptor expressed in CHO cells at 10 uM by liquid scintillation counting; type: cell-based
# [8] = molecular target: Cannabinoid receptor 1 (Homo sapiens) (UniProt P21554); assay: Agonist activity at human CB1 receptor expressed in CHO cells by [35S]GTPgammaS assay relative to CP-55940; type: functional, cell-based
# [9] = molecular target: T1, Cannabinoid receptor 2; assay: Agonist activity at human CB2 receptor expressed in CHO cells by [35S]GTPgammaS assay relative to CP-55940; type: functional, cell-based
# [10] = molecular target: T1, Cannabinoid receptor 2; assay: Displacement of [3H]CP-55940 from human CB2 receptor expressed in CHOK1 cells by liquid scintillation counting; type: cell-based, CHO-K1
# [11] = molecular target: T1, Cannabinoid receptor 2; assay: Agonist activity at human CB2 receptor expressed in CHO cells by [35S]GTPgammaS assay; type: functional, cell-based
# [12] = system: Rattus norvegicus; assay: Antiallodynic activity in AM-630-pretreated ip dosed spinal nerve ligated Sprague-Dawley rat model assessed as inhibition of tactile allodynia; type: functional, organism-based
# [13] = system: Rattus norvegicus; assay: Antiallodynic activity in spinal nerve ligated Sprague-Dawley rat model assessed as inhibition of tactile allodynia at 10 mg/kg, ip; type: functional, organism-based; design: dose 10 mg/kg
# [14] = system: Rattus norvegicus; assay: Antiallodynic activity in ip dosed spinal nerve ligated Sprague-Dawley rat model assessed as inhibition of tactile allodynia; type: functional
# [15] = system: Rattus norvegicus; assay: Antiallodynic activity in spinal nerve ligated Sprague-Dawley rat model assessed as inhibition of tactile allodynia at 15 mg/kg, ip; type: functional, organism-based; design: dose 15 mg/kg
# [16] = system: Rattus norvegicus; assay: Toxicity in Sprague-Dawley rat assessed as exploratory behavior at 15 mg/kg, ip by open-field chamber test; type: organism-based; design: dose 15 mg/kg, route intraperitoneal; conditions: in vivo
SMILES,Activity [2],Activity [3],Emax [9],further results
CCCCCCN1C(=O)/C(=N/NC(=O)OC(C)(C)C)c2ccccc21,75%,27%,–,Activity [1]: inactive; Activity [4]: inactive; Emax [5]: 23.4%
CCCCCCN1C(=O)/C(=N/NS(=O)(=O)c2ccccc2)c2ccccc21,–,–,–,Activity [6]: < 40%; Activity [7]: < 40%
O=C(N/N=C1\C(=O)N(c2ccccc2)c2ccccc21)c1ccccc1,18%,8%,–,–
O=C1/C(=N\NS(=O)(=O)c2ccccc2)c2ccccc2N1CCC1CCCCC1,–,–,–,Activity [6]: < 40%; Activity [7]: < 40%
CCCCCCN1C(=O)/C(=N\NC(=O)c2ccccc2)c2cccc(C)c21,67%,68%,34.2%,Activity [8]: inactive; Activity [1]: inactive
CCCN1C(=O)/C(=N\NC(=O)c2ccccc2)c2ccccc21,43%,32%,61.4%,Activity [8]: inactive; Activity [1]: inactive
O=C(N/N=C1\C(=O)N(CCC2CCCCC2)c2ccccc21)c1ccccc1,–,–,55.6%,Activity [6]: 96%; Activity [7]: 79.8%; Emax [8]: 56.8%; Ki [10]: 58.8 nM
CCCCCCN1C(=O)/C(=N\NC(=O)c2ccccc2)c2cccc(Cl)c21,60%,29%,64.8%,Activity [8]: inactive; Activity [1]: inactive
CCCCCCN1C(=O)/C(=N\NC(=O)c2ccccc2)c2cccc(I)c21,61%,66%,–,Activity [8]: inactive; Activity [1]: inactive; Emax [5]: 55%
CCCCCCN1C(=O)/C(=N\NC(=O)c2ccccc2)c2cc(C)ccc21,22%,1%,–,–
CCCCCCN1C(=O)/C(=N\NC(=O)Cc2ccccc2)c2ccccc21,–,–,45.8%,Activity [6]: 98.2%; Activity [7]: 91.5%; Emax [8]: 71.9%
CCCCCCN1C(=O)/C(=N\NC(=S)Nc2ccccc2)c2ccccc21,–,–,–,Activity [6]: 49%; Activity [7]: 37.7%
O=C(N/N=C1\C(=O)N(Cc2ccccc2)c2ccccc21)c1ccccc1,87%,55%,92.7%,Emax [8]: 57%; EC50 [11]: 63.7 nM; Emax [4]: 57%; Ki [10]: 18.5 nM
CCCCCCN1C(=O)/C(=N\NC(=O)c2ccccc2)c2cc(F)ccc21,57%,46%,33.8%,Activity [8]: inactive; Activity [1]: inactive
O=C(N/N=C1\C(=O)N(CC2CCCCC2)c2ccccc21)c1ccccc1,99%,100%,65.7%,Emax [8]: 99%
O=C(Cc1ccccc1)N/N=C1\C(=O)N(CCC2CCCCC2)c2ccccc21,–,–,21%,Activity [6]: 88.8%; Activity [7]: 47.2%; Emax [8]: 75%
O=C(N/N=C1\C(=O)N(CCN2C(=O)c3ccccc3C2=O)c2ccccc21)c1ccccc1,3%,3%,–,–
CCCCCCN1C(=O)/C(=N\NC(=O)C2CCCCC2)c2ccccc21,65.8%,61%,58%,Emax [4]: 40.9%
CCCCCN1C(=O)/C(=N\NC(=O)c2ccccc2)c2cc(I)ccc21,25%,10%,–,–

SMILES,Activity [2],Activity [3],Emax [9],further results
CCCCCCN1C(=O)/C(=N\NC(=O)c2ccc(OC)cc2)c2ccccc21,81.7%,56%,49.5%,Emax [8]: 71%
CCCCCCN1C(=O)/C(=N\NC(=O)CCCCC)c2ccccc21,45.2%,36.6%,–,–
CCCCN1C(=O)/C(=N\NC(=O)c2ccccc2)c2ccccc21,86%,70%,98.9%,Emax [4]: 69%; Ki [10]: 19.3 nM
CCCCCCN1C(=O)/C(=N\NC(=O)c2ccc3ccccc3c2)c2ccccc21,< 30%,< 30%,–,–
CCCCCCN1C(=O)/C(=N\NC(=O)c2ccccc2)c2cc(Cl)ccc21,9%,6%,–,–
O=C(N/N=C1\C(=O)N(CCC2CCCCC2)c2ccccc21)Nc1ccccc1,–,–,–,Activity [6]: < 40%; Activity [7]: < 40%
O=C(N/N=C1\C(=O)N(Cc2ccc(Cl)cc2)c2ccccc21)c1ccccc1,94.5%,22%,39.8%,Emax [8]: 72%
O=C1/C(=N\NC(=S)Nc2ccccc2)c2ccccc2N1CCC1CCCCC1,–,–,–,Activity [6]: < 40%; Activity [7]: < 40%
CCCCCCCCCCCCN1C(=O)/C(=N\NC(=O)c2ccccc2)c2ccccc21,23.8%,24.3%,–,–
CCCCCCN1C(=O)/C(=N\NC(=O)c2cccc3ccccc23)c2ccccc21,83.9%,69.8%,30.5%,Emax [4]: 12.9%
CCCCCCN1C(=O)/C(=N\NC(=O)Nc2ccccc2)c2ccccc21,–,–,–,Activity [6]: < 40%; Activity [7]: < 40%
CCCCCCN1C(=O)/C(=N\NC(=O)C23CC4CC(CC(C4)C2)C3)c2ccccc21,82.6%,90.7%,–,Emax [4]: 34.6%; Emax [5]: 32.1%
CN1CCCCC1Cn1cc(C(=O)c2cc([N+](=O)[O-])ccc2I)c2ccccc21 (configuration not stated),–,–,–,Activity [12]: inactive
CCCCCCN1C(=O)/C(=N\NC(=O)c2ccccc2)c2cc(OC)ccc21,26%,17%,–,–
CCCCCCN1C(=O)/C(=N\NC(=O)c2cc3ccccc3s2)c2ccccc21,< 30%,< 30%,–,–
CCCCCCN1C(=O)/C(=N\NC(=O)c2ccc(Cl)cc2)c2ccccc21,46.6%,32.7%,–,–
CCCCCCN1C(=O)/C(=N\NC(=O)OC(C)(C)C)c2ccccc21,85.1%,82.3%,43.4%,Emax [8]: 92%; Ki [10]: 13.9 nM
CCCCCN1C(=O)/C(=N\NC(=O)c2ccccc2)c2ccccc21,95%,80%,68.5%,Emax [8]: 95.1%
CCCCCCN1C(=O)/C(=N\NC(=O)c2ccccc2)c2ccccc21,–,–,68.8%,Activity [6]: 95.5%; Activity [7]: 92.8%; Emax [8]: 59.7%; Ki [10]: 44.3 nM; Activity [13]: Active; ED90 [14]: 12 mg/kg; Activity [15]: Active; Activity [16]: Non-toxic
